One data set deals with MDCK cells. The data set is described as follows: Cytotoxicity assay. It counts as cell-based. The following applies: 50% cytotoxic concentration, 48 hr. As to the method:
A three-fold dilution compound was added to cell monolayer, and the cells continued to be cultivated for 48 hr, and then the CPE was recorded. The TC50 value of each compound was calculated by the methods of Reed & Muench.

In data set [1] the test system is influenza virus A/hanfang/359/95 (H3N2). The data set is described as follows: organism not typed. The following applies: MDCK cells; for IC50: 50% virus-inhibitory concentration after 40 hr at 37 °C, – = no anti-H3N2 activity at the maximum non-toxic concentration; for anti-H3N2 activity (in words): CPE assay. It counts as cell-based.
Data set [2] concerns influenza virus A/Fort Monmouth/1/1947 (H1N1). The data set is described as follows: organism not typed. The following applies: MDCK cells, CPE. The class given is cell-based.
The nature of data set [3]: Stability assay in whole blood. The class given is in vitro ADME, SD rats. The following applies: in vitro, 37 °C. As for the experimental part: The results hinted that 9f owned a good PK stability profile in blood, and it was chosen for the next investigation.
The fresh bloods were collected on the day of experiment from SD rats, and pre-warmed in a water bath at 37 °C. A concentration of 10 mM tested compound or enalapril stock solutions were prepared in DMSO, and then diluted with 45% MeOH/H2O to achieve […] dosing solutions. […] At the end of incubation, for each sample, […] water and […] of stop solution (200 ng·mL^−1 tolbutamide plus 20 ng·mL^−1 buspirone in acetonitrile) were immediately added to precipitate the protein, and centrifuged at 4000 rpm for 20 min. An aliquot of supernatant ([…]) was then extracted, mixed with […] H2O, and then shaken at 800 rpm for about 10 min before being submitted for a liquid chromatography-tandem mass […] (LC-MS/MS) analysis. The experiment was repeated twice.
Figure 3 The stability assessments of key compounds 9f and 9j in whole blood. […]

Counter-ions that a name gives are not always drawn.

As usually defined, the melting point is the temperature of the solid-liquid transition. One may read the IC50 as the concentration at which inhibition is half-maximal.

For the molecule `O=C(OCCCC[C@@H]1[C@H]2CCCN3CCC[C@@H](CN1S(=O)(=O)c1ccc(C(F)(F)F)cc1)[C@@H]23)C12CC3CC(CC(C3)C1)C2` (as salt: hydrochloride) [Compound 9a, 12N-p-Trifluoromethlybenzenesulfonyl matrinic butyl adamantine-1’-carboxylate hydrochloride], the melting point is 231 °C (dec.).

Turning to `O=C(OCCCC[C@@H]1[C@H]2CCCN3CCC[C@@H](CN1S(=O)(=O)c1ccc(C(F)(F)F)cc1)[C@@H]23)C12CC3CC(CC1C3)C2` (as salt: hydrochloride) [Compound 9g, 12N-p-Trifluoromethlybenzenesulfonylmatrinicbutyl-3’-noradamantane-1’-carboxylate hydrochloride], the melting point is 186 to 187 °C.

Regarding `O=C(OCCCC[C@@H]1[C@H]2CCCN3CCC[C@@H](CN1S(=O)(=O)c1ccc(C(F)(F)F)cc1)[C@@H]23)C12CC3CC(CC(Br)(C3)C1)C2` (as salt: hydrochloride) [Compound 9c, 12N-p-Trifluoromethlybenzenesulfonylmatrinicbutyl-3’-bromoadamantane-1’-carboxylate hydrochloride], the melting point was 222 to 223 °C. Turning to `O=C(CC12CC3CC(CC(C3)C1)C2)OCCCC[C@@H]1[C@H]2CCCN3CCC[C@@H](CN1S(=O)(=O)c1ccc(C(F)(F)F)cc1)[C@@H]23` [Compound 9b, 12N-p-Trifluoromethlybenzenesulfonyl matrinic butyl-1’-adamantaneacetatehydrochloride], the TC50 in the data set with MDCK cells is given as 61.9 ± 1.9 µM. Besides, in data set [1], the IC50 is 28.4 ± 2.3 µM. In the data set with MDCK cells, `O=C(OCCCC[C@@H]1[C@H]2CCCN3CCC[C@@H](CN1S(=O)(=O)c1ccc(C(F)(F)F)cc1)[C@@H]23)C12CC3CC(CC1C3)C2` [Compound 9g, 12N-p-Trifluoromethlybenzenesulfonylmatrinicbutyl-3’-noradamantane-1’-carboxylate hydrochloride] had a TC50 of 38.5 ± 6.6 µM. For the same molecule, the “anti-H3N2 activity (in words)” value in data set [1] is given as “complete loss in activity”. Regarding `O=C(OCCCC[C@@H]1[C@H]2CCCN3CCC[C@@H](CN1S(=O)(=O)c1cccc(C(F)(F)F)c1)[C@@H]23)C12CC3CC(CC1C3)C2` (as salt: hydrochloride) [Compound 9h, 12N-m-Trifluoromethlybenzenesulfonylmatrinicbutyl-3’-noradamantane-1’-carboxylate hydrochloride], the melting point was 207 °C (dec.). `O=C(OCCCC[C@@H]1[C@H]2CCCN3CCC[C@@H](CN1S(=O)(=O)c1cccc(C(F)(F)F)c1)[C@@H]23)C12CC3CC(CC1C3)C2` [Compound 9h, 12N-m-Trifluoromethlybenzenesulfonylmatrinicbutyl-3’-noradamantane-1’-carboxylate hydrochloride] returned a TC50 in the data set with MDCK cells of 59.7 ± 0.0 µM. Further, the “anti-H3N2 activity (in words)” value in data set [1] is reported as “complete loss in activity”. In the data set with MDCK cells, `CC(C)(C)C(=O)OCCCC[C@@H]1[C@H]2CCCN3CCC[C@@H](CN1S(=O)(=O)c1cccc(C(F)(F)F)c1)[C@@H]23` [Compound 9l, 12N-m-Trifluoromethlybenzenesulfonyl matrinicbutylpivalate hydrochloride] registered a TC50 of 52.9 ± 8.0 µM. Also, half-maximal inhibition in data set [1] (IC50) was put at 18.2 ± 3.2 µM.

On to `CC(C)(C)C(=O)OCCCC[C@@H]1[C@H]2CCCN3CCC[C@@H](CN1S(=O)(=O)c1ccc(C(F)(F)F)cc1)[C@@H]23` [Compound 9k, 12N-p-Trifluoromethlybenzenesulfonyl matrinic butyl pivalate hydrochloride], for which the TC50 in the data set on MDCK cells turned out to be 94.3 ± 11.3 µM. Regarding `CCCC[C@@H]1[C@H]2CCCN3CCC[C@@H](CN1S(=O)(=O)c1ccc(C(F)(F)F)cc1)[C@@H]23` [Compound 7a], in the data set with MDCK cells, the TC50 was 79.8 ± 4.7 µM. Also, the IC50 in data set [1] was 21.3 ± 1.9 µM. Turning to `CC(C)(C)C(=O)OCCCC[C@@H]1[C@H]2CCCN3CCC[C@@H](CN1S(=O)(=O)c1ccc(C(F)(F)F)cc1)[C@@H]23` (as salt: hydrochloride) [Compound 9k, 12N-p-Trifluoromethlybenzenesulfonyl matrinic butyl pivalate hydrochloride], the melting point lay in the range of 219 to 221 °C. For the molecule `O=C(OCCCC[C@@H]1[C@H]2CCCN3CCC[C@@H](CN1S(=O)(=O)c1ccc(C(F)(F)F)cc1)[C@@H]23)C12CC3CC(CC(C3)C1)C2` [Compound 9a, 12N-p-Trifluoromethlybenzenesulfonyl matrinic butyl adamantine-1’-carboxylate hydrochloride], the TC50 with MDCK cells turned out to be 19.5 ± 2.8 µM. In data set [1], this molecule displayed an IC50 of 16.5 ± 2.9 µM. Regarding `O=C(CC1CC2CCC1C2)OCCCC[C@@H]1[C@H]2CCCN3CCC[C@@H](CN1S(=O)(=O)c1ccc(C(F)(F)F)cc1)[C@@H]23` (stereo partly shown) (as salt: hydrochloride) [Compound 9i, 12N-p-Trifluoromethlybenzenesulfonyl matrinic butyl-2’-norbornane acetate hydrochloride], the melting point was 223 °C (dec.). Turning to `O=C(CC12CC3CC(CC(C3)C1)C2)OCCCC[C@@H]1[C@H]2CCCN3CCC[C@@H](CN1S(=O)(=O)c1cccc(C(F)(F)F)c1)[C@@H]23` [Compound 9e, 12N-m-Trifluoromethlybenzenesulfonyl matrinic butyl-1’-adamantaneacetatehydrochloride], the TC50 with MDCK cells is 63.4 ± 2.3 µM. In data set [1], this molecule had an IC50 of 11.1 ± 1.5 µM. `CC(C)(C)C(=O)OCCCC[C@@H]1[C@H]2CCCN3CCC[C@@H](CN1S(=O)(=O)c1cccc(C(F)(F)F)c1)[C@@H]23` (as salt: hydrochloride) [Compound 9l, 12N-m-Trifluoromethlybenzenesulfonyl matrinicbutylpivalate hydrochloride]: the melting point was 162 to 164 °C. For `NC12CC3CC(CC(C3)C1)C2` [AH, amantadine hydrochloride, reference compound], the IC50 in data set [1] came to 3.25 ± 0.5 µM; in data set [2], 2.73 µM. `CCCC[C@@H]1[C@H]2CCCN3CCC[C@@H](CN1S(=O)(=O)c1cccc(C(F)(F)F)c1)[C@@H]23` [Compound 7b] came in with a TC50 with MDCK cells of 86.6 ± 2.3 µM. The IC50 in data set [1] was found to be 28.9 ± 2.4 µM. `O=C(OCCCC[C@@H]1[C@H]2CCCN3CCC[C@@H](CN1S(=O)(=O)c1cccc(C(F)(F)F)c1)[C@@H]23)C12CC3CC(CC(C3)C1)C2` [Compound 9d, 12N-m-Trifluoromethlybenzenesulfonyl matrinic butyl adamantine-1’-carboxylate hydrochloride] came in with a TC50 in the data set with MDCK cells of 54.9 ± 3.5 µM. Moreover, the IC50 in data set [1] was 5.9 ± 0.9 µM; in data set [2], 22.4 ± 1.3 µM. The molecule `O=C(CC12CC3CC(CC(C3)C1)C2)OCCCC[C@@H]1[C@H]2CCCN3CCC[C@@H](CN1S(=O)(=O)c1cccc(C(F)(F)F)c1)[C@@H]23` (as salt: hydrochloride) [Compound 9e, 12N-m-Trifluoromethlybenzenesulfonyl matrinic butyl-1’-adamantaneacetatehydrochloride] showed a melting point of 155 to 156 °C.

Turning to `CCCC[C@@H]1[C@H]2CCCN3CCC[C@@H](CN1S(=O)(=O)c1ccccc1C(F)(F)F)[C@@H]23` [Compound 7c], the TC50 with MDCK cells came out at 86.6 ± 3.8 µM. For the same molecule, in data set [1], the midpoint of inhibition, the IC50, lay at 50 ± 1.1 µM. `O=C(CC12CC3CC(CC(C3)C1)C2)OCCCC[C@@H]1[C@H]2CCCN3CCC[C@@H](CN1S(=O)(=O)c1ccc(C(F)(F)F)cc1)[C@@H]23` (as salt: hydrochloride) [Compound 9b, 12N-p-Trifluoromethlybenzenesulfonyl matrinic butyl-1’-adamantaneacetatehydrochloride]: the melting point was 227 °C (dec.).

`O=C(OCCCC[C@@H]1[C@H]2CCCN3CCC[C@@H](CN1S(=O)(=O)c1cccc(C(F)(F)F)c1)[C@@H]23)C12CC3CC(CC(C3)C1)C2` (as salt: hydrochloride) [Compound 9d, 12N-m-Trifluoromethlybenzenesulfonyl matrinic butyl adamantine-1’-carboxylate hydrochloride] had a melting point of 190 to 191 °C.

As to `CCOC(=O)[C@H](CCc1ccccc1)N[C@@H](C)C(=O)N1CCC[C@H]1C(=O)O` [enalapril, (S)-N-[1-(ethoxycarbonyl)-3-phenylpropyl]-Ala-Pro maleate, reference compound], the “stability in whole blood (in words)” value in data set [3] is on record as “hydrolyzed quickly”.

In the data set on MDCK cells, `O=C(CC1CC2CCC1C2)OCCCC[C@@H]1[C@H]2CCCN3CCC[C@@H](CN1S(=O)(=O)c1ccc(C(F)(F)F)cc1)[C@@H]23` (stereo partly shown) [Compound 9i, 12N-p-Trifluoromethlybenzenesulfonyl matrinic butyl-2’-norbornane acetate hydrochloride] had a TC50 of 129.0 ± 20.9 µM. This molecule also showed an IC50 in data set [1] of 25.7 ± 4.8 µM. `O=C(OCCCC[C@@H]1[C@H]2CCCN3CCC[C@@H](CN1S(=O)(=O)c1ccc(C(F)(F)F)cc1)[C@@H]23)C12CC3CC(CC(Br)(C3)C1)C2` [Compound 9c, 12N-p-Trifluoromethlybenzenesulfonylmatrinicbutyl-3’-bromoadamantane-1’-carboxylate hydrochloride] registered a TC50 in the data set with MDCK cells of 73.6 ± 4.3 µM. Moreover, the IC50 turned out to be 8.2 ± 2.07 µM in data set [1] and 27.5 ± 0.1 µM in data set [2].
